Read-outs that look alike come from different tables or passages of the source.

From US11198687B2, “Heteroaryl allosteric modulators of nicotinic acetylcholine receptors” (Merck Sharp & Dohme Corp., priority 2017, dated 2021) come the findings set out here.

For the assay, the target named is human α7 nAChR (Homo sapiens, UniProt P36544). The experiment in a line: Automated patch-clamp electrophysiology functional assay (Assay A). Format: cell-based. The conditions noted are these: IonFlux HT whole-cell population patch, HEK cell line stably expressing human RIC-3 and human α7, 40 μM acetylcholine. On the procedure:
The α7 nAChR positive allosteric modulator (PAM) activity of the present compounds may be tested using assays known in the art. […] The assay was performed using the IonFlux HT in a whole-cell, population patch configuration. See Golden et al. Assay Drug Dev. Technol. (2011) 9:608-619. The compounds were assessed for their ability to modulate the function of the human α7 nAChR stably expressed in a HEK cell line both in the presence, and in the absence of the natural α7 agonist acetylcholine. By performing a series of such measurements at different concentrations, the effective concentration of the α7 nAChR PAMs (EC50) was determined. See Spencer et al. Assay Drug Dev. Technol. (2012) 10:313-324.
Direct activation of α7 (agonism), and potentiation of acetylcholine-evoked α7 currents was determined as follows:
Automated Patch-Clamp Electrophysiology Functional Assay (Assay A)
Automated patch-clamp electrophysiology was performed using the IonFlux HT (Fluxion Biosciences Inc., San Francisco, Calif.) in the whole-cell, population patch configuration. Test compounds were assessed for their ability to modulate the function of the α7 nicotinic acetylcholine receptor both in the presence, and in the absence of the natural α7 agonist acetylcholine. A HEK cell line stably expressing both human RIC-3 and human α7 (PrecisION hnAChR α7/RIC-3, Eurofins Pharma, St. Charles, Mo.) was cultured in 175 cm^2 triple-layer tissue culture flasks to no more than 90% confluency in DMEM/F-12 growth media supplemented with 10% heat-inactivated fetal bovine serum, 1% non-essential amino acids, 0.625 μg/mL Puromycin, and 400 μg/mL Geneticin. Immediately prior to assay, cells were detached by first aspirating growth media, rinsing with Dulbecco's phosphate buffered saline, and then adding 10 mL of Accutase (Innovative Cell Technologies, San Diego, Calif.) to the flask and then incubating at 37° C. for 5 minutes. Detached cells were then recovered by the addition of 40 mL of CHO-serum-free media supplemented with 25 mM HEPES, and rocked gently in a 50 mL conical tube for 20 minutes prior to patch-clamp assay. […] The cell suspension was added to the cell inlet wells on an IonFlux HT population patch plate which had previously been rinsed and primed with deionized H2O. Test compounds were serially diluted in DMSO and then resuspended to the final test concentration in external recording solution, with, or without 40 μM acetylcholine added to the external recording solution; test compounds were then transferred to the lonFlux HT population patch plate. Internal recording solution (110 mM TrisPO4, 28 mM TrisBase, 0.1 mM CaCl2, 2 mM MgCl2, 11 mM EGTA, 4 mM MgATP) was added to the internal recording solution inlet wells on the IonFlux HT patch plate previously loaded with cells and test compounds, and the plate loaded into the IonFlux HT instrument. A protocol was executed on the IonFlux HT to trap the cells, break into the cells, and establish the whole-cell recording configuration; cells were voltage-clamped at a holding potential of −60 mV for the duration of the experiment, all experiments were conducted at room temperature, and the IonFlux HT injection pressure was 8 psi for solution applications. Upon establishing the whole-cell configuration, external recording solution was perfused into the recording chambers for 120 seconds and then 40 μM acetylcholine was applied for 1 second and immediately washed off with external recording solution for 60 seconds. The 40 μM acetylcholine-evoked α7 current served as the current response to which subsequent test compound effects, in the presence, or in the absence of 40 μM acetylcholine would be quantified relative to. Next, test compounds were evaluated at multiple concentrations for their ability to induce, or modulate α7 current responses; three concentrations of test compound were evaluated in ascending dose fashion per recording.
(In general: The patch-clamp technique gives a direct electrical read-out from membranes.)

human α7 nAChR, sequence (P36544 23-502): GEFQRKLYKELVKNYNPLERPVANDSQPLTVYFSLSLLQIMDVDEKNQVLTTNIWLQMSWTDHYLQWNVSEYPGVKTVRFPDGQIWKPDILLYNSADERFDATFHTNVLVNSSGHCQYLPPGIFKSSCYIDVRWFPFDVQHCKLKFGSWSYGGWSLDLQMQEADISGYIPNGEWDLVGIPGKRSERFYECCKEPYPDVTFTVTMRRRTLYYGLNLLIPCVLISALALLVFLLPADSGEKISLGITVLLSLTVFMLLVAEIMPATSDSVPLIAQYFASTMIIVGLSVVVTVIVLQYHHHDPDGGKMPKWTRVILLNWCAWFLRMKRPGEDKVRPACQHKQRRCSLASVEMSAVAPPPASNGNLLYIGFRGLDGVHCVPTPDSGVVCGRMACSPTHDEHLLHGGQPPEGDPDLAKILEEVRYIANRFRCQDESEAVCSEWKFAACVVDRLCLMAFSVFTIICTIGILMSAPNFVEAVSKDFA

Take `CC1(C)[C@@H](c2ccc(S(N)(=O)=O)cn2)[C@@H]1c1nc(-c2ccccc2)no1` (racemic) [Example G2, 6-[trans-2,2-Dimethyl-3-(3-phenyl-1,2,4-oxadiazol-5-yl)cyclopropyl]pyridine-3-sulfonamide]: the EC50 by setting is: (read-out: α7 nAChR EC50) 970 nM; (read-out: α7 nAChR Potency) 500 to 5000 nM. In the case of `CC1(C)[C@@H](c2ccc(S(N)(=O)=O)nc2)[C@@H]1c1nc(C2CCCCC2)no1` [Example B6, 5-[(1S,3S)-3-(3-Cyclohexyl-1,2,4-oxadiazol-5-yl)-2,2-dimethylcyclopropyl]pyridine-2-sulfonamide], under “read-out: α7 nAChR Potency”, the EC50 was in the range of 100 to 500 nM.

On to `COc1ccc(Cl)cc1-c1noc([C@@H]2[C@@H](c3ccc(S(N)(=O)=O)cn3)C2(C)C)n1` [Example E4, 6-{(1R,3R)-3-[3-(5-Chloro-2-methoxyphenyl)-1,2,4-oxadiazol-5-yl]-2,2-dimethylcyclopropyl}pyridine-3-sulfonamide], for which the EC50 runs as follows: (read-out: α7 nAChR EC50) 5400 nM; (read-out: α7 nAChR Potency) 5000 to 50000 nM.

Turning to `CC1(C)[C@@H](c2ccc(S(N)(=O)=O)nc2)[C@@H]1c1noc(C2(C(F)(F)F)CC2)n1` (racemic) [Example C11, 5-(trans-2,2-Dimethyl-3-{5-[1-(trifluoromethyl)cyclopropyl]-1,2,4-oxadiazol-3-yl}cyclopropyl)pyridine-2-sulfonamide], the EC50 is 1500 nM (read-out: α7 nAChR EC50) and 500 to 5000 nM (read-out: α7 nAChR Potency). The like results for `CC1(C)[C@@H](c2ccc(S(N)(=O)=O)cn2)[C@@H]1c1nc(-c2cncc(F)c2)no1` [Example F11, 6-{(1S,3S)-3-[3-(5-Fluoropyridin-3-yl)-1,2,4-oxadiazol-5-yl]-2,2-dimethylcyclopropyl}pyridine-3-sulfonamide] were, in that order, 3400 nM and 500 to 5000 nM. In the case of `CC1(C)[C@@H](c2ccc(S(N)(=O)=O)cn2)[C@@H]1c1nc(C2CC(F)(F)C2)no1` [Example F12, 6-{(1S,3S)-3-[3-(3,3-Difluorocyclobutyl)-1,2,4-oxadiazol-5-yl]-2,2-dimethylcyclopropyl}pyridine-3-sulfonamide], the EC50 (read-out: α7 nAChR EC50) was determined as 1900 nM and the EC50 (read-out: α7 nAChR Potency) lay within 500 to 5000 nM. With `CC1(C)[C@@H](c2ccc(S(N)(=O)=O)cn2)[C@@H]1c1nc(-c2cccc(C(F)(F)F)c2)no1` [Example F6, 6-[(1S,3S)-2,2-Dimethyl-3-{3-[3-(trifluoromethyl)phenyl]-1,2,4-oxadiazol-5-yl}cyclopropyl]pyridine-3-sulfonamide], the EC50 (read-out: α7 nAChR EC50) was 2700 nM and the EC50 (read-out: α7 nAChR Potency) lay within 500 to 5000 nM.

Take `CC1(C)C(c2ccc(S(N)(=O)=O)nc2)C1c1cc(-c2cccc(F)c2)on1` (single isomer, unassigned) [Example 13, 5-{trans-3-[5-(3-Fluorophenyl)isoxazol-3-yl]-2,2-dimethylcyclopropyl}pyridine-2-sulfonamide]: the EC50 (read-out: α7 nAChR EC50) was 770 nM and the EC50 (read-out: α7 nAChR Potency) was in the range of 500 to 5000 nM. For `CC1(C)C(c2ccc(S(N)(=O)=O)nc2)C1c1nc2ccccc2o1` (single isomer, unassigned) [Example 1, 5-[trans-3-(1,3-Benzoxazol-2-yl)-2,2-dimethylcyclopropyl]pyridine-2-sulfonamide], in that order: 450 nM and 100 to 500 nM. The like results for `CC1(C)[C@@H](c2ccc(S(N)(=O)=O)nc2)[C@@H]1c1nc(C2CCCC2)no1` [Example B7, 5-[(1S,3S)-3-(3-Cyclopentyl-1,2,4-oxadiazol-5-yl)-2,2-dimethylcyclopropyl]pyridine-2-sulfonamide] were, in that order, 370 nM and 100 to 500 nM. The like results for “6-[trans-3-(1,3-Benzoxazol-2-yl)-2,2-dimethylcyclopropyl]pyridine-3-sulfonamide [Example G1]” were, in that order, 900 nM and 500 to 5000 nM. Regarding `CC(C)c1noc([C@H]2[C@H](c3ccc(S(N)(=O)=O)cn3)C2(C)C)n1` [Example F14, 6-{(1S,3S)-2,2-Dimethyl-3-[3-(propan-2-yl)-1,2,4-oxadiazol-5-yl]cyclopropyl}pyridine-3-sulfonamide], the EC50 is, setting by setting: (read-out: α7 nAChR EC50) 1600 nM; (read-out: α7 nAChR Potency) 500 to 5000 nM. The like results for `CC1(C)[C@H](c2ccc(S(N)(=O)=O)nc2)[C@H]1c1ncc(-c2ccccc2)o1` [Example A15, 5-[(1R,3R)-2,2-Dimethyl-3-(5-phenyl-1,3-oxazol-2-yl)cyclopropyl]pyridine-2-sulfonamide] were, in that order, 1600 nM and 500 to 5000 nM. As to `NS(=O)(=O)c1ccc([C@@H]2C[C@H]2c2nc(-c3cccc(F)c3)no2)cn1` (racemic) [Example C8, 5-{trans-2-[3-(3-Fluorophenyl)-1,2,4-oxadiazol-5-yl]cyclopropyl}pyridine-2-sulfonamide], the EC50 is, setting by setting: (read-out: α7 nAChR EC50) 390 nM; (read-out: α7 nAChR Potency) 100 to 500 nM.

`CC1(C)[C@@H](c2nc(-c3ccccc3)no2)[C@@H]1c1ncc(S(N)(=O)=O)s1` (racemic) [Example D4, 2-[trans-2,2-Dimethyl-3-(3-phenyl-1,2,4-oxadiazol-5-yl)cyclopropyl]-1,3-thiazole-5-sulfonamide]: the EC50 runs as follows: (read-out: α7 nAChR EC50) 360 nM; (read-out: α7 nAChR Potency) 100 to 500 nM. For `CC1(C)[C@@H](c2nc(-c3cncc(F)c3)no2)[C@@H]1c1ncc(S(N)(=O)=O)s1` (racemic) [Example D3, 2-{trans-3-[3-(5-Fluoropyridin-3-yl)-1,2,4-oxadiazol-5-yl]-2,2-dimethylcyclopropyl}-1,3-thiazole-5-sulfonamide], in that order: 1600 nM and 500 to 5000 nM. The like results for `COc1ccc(Cl)cc1-c1noc([C@@H]2[C@@H](c3ccc(S(N)(=O)=O)nc3)C2(C)C)n1` [Example A6, 5-{(1R,3R)-3-[3-(5-Chloro-2-methoxyphenyl)-1,2,4-oxadiazol-5-yl]-2,2-dimethylcyclopropyl}pyridine-2-sulfonamide] were, in that order, 1500 nM and 500 to 5000 nM.

Take `CC1(C)[C@@H](c2nc3ccccc3o2)[C@@H]1c1ncc(S(N)(=O)=O)s1` (racemic) [Example D1, 2-[trans-3-(1,3-Benzoxazol-2-yl)-2,2-dimethylcyclopropyl]-1,3-thiazole-5-sulfonamide]: the EC50 was 2000 nM (read-out: α7 nAChR EC50) and 500 to 5000 nM (read-out: α7 nAChR Potency). Regarding `CC1(C)[C@@H](c2ccc(S(N)(=O)=O)nc2)[C@@H]1c1nc(-c2ccc(F)cc2F)no1` [Example B3, 5-{(1S,3S)-3-[3-(2,4-Difluorophenyl)-1,2,4-oxadiazol-5-yl]-2,2-dimethylcyclopropyl}pyridine-2-sulfonamide], the EC50 (read-out: α7 nAChR Potency) lay within 500 to 5000 nM.

Consider `NS(=O)(=O)c1ccc(C2CC2c2nc(-c3ccccc3)no2)cn1` (racemic) [Example C5, 5-[trans-2-(3-Phenyl-1,2,4-oxadiazol-5-yl)cyclopropyl]pyridine-2-sulfonamide], for which the EC50 (read-out: α7 nAChR EC50) was found to be 1100 nM and the EC50 (read-out: α7 nAChR Potency) lay within 500 to 5000 nM. Take `CC1(C)[C@@H](c2ccc(S(N)(=O)=O)nc2)[C@@H]1c1nc(C2CC(F)(F)C2)no1` [Example B8, 5-{(1S,3S)-3-[3-(3,3-Difluorocyclobutyl)-1,2,4-oxadiazol-5-yl]-2,2-dimethylcyclopropyl}pyridine-2-sulfonamide]: the EC50 (read-out: α7 nAChR Potency) was in the range of 500 to 5000 nM.

Consider `CC1(C)[C@H](c2ccc(S(N)(=O)=O)cn2)[C@H]1c1nc(-c2ccccc2)no1` [Example E3, 6-[(1R,3R)-2,2-Dimethyl-3-(3-phenyl-1,2,4-oxadiazol-5-yl)cyclopropyl]pyridine-3-sulfonamide], for which the EC50 (read-out: α7 nAChR Potency) is 500 to 5000 nM. As to `CC1(C)[C@@H](c2ccc(S(N)(=O)=O)nc2)[C@@H]1c1noc(C2CCCC2)n1` (racemic) [Example C2, 5-[trans-3-(5-Cyclopentyl-1,2,4-oxadiazol-3-yl)-2,2-dimethylcyclopropyl]pyridine-2-sulfonamide], the EC50 by setting is: (read-out: α7 nAChR EC50) 920 nM; (read-out: α7 nAChR Potency) 500 to 5000 nM.
